“And” between values parts separate entries of the source, which are not always exact repeats. Equal values may be shown once. Read-outs that look alike come from different tables or passages of the source.
Experiments:
vaccinia virus = type: cell-based; conditions: against vaccinia virus; hydrochloride
[1] = target: Moloney Leukemia Virus reverse transcriptase (Moloney murine leukemia virus, UniProt P03355); assay: inhibition of MLV associated reverse transcriptase activity; conditions: for ID50 (average ± SD): 50% inhibitory dose after 120 min incubation
poly(dA-dT) = assay: ethidium displacement assay, poly(dA-dT); conditions: relative to ethidium 9.5 × 10^6 M^-1, average of repeat measurements
calf thymus DNA = assay: ethidium displacement assay, drug-DNA binding constant, calf thymus DNA; conditions: relative to ethidium 10^7 M^-1, average of repeat measurements
[2] = test system: Moloney murine leukemia virus (MLV); assay: anti-Moloney murine leukemia virus (MLV) plaque test; type: cell-based; conditions: anti-MLV plaque count
SC-1 cells = assay: toxicity TD50 reported with the anti-MLV test; conditions: Table IV
[3] = test system: T4 lymphocytes (CEM cell line); assay: NCI anti-HIV screen, toxicity control in uninfected cells; type: cell-based; conditions: Table X
HIV-1 = conditions: for EC50: Table XI; for INFECTED RESPONSE % of Control: Table X; for Anti-HIV-1 Activity (National Cancer Institute Designation): inactive, moderate or active
HBV = assay: inhibition of HBV DNA replication in 2.2.15 cell cultures; type: cell-based; conditions: for INT[…] DNA MONO.: 24 hours following the 9th day of treatment; for INT[…] DNA MONO. / HBV VIRION DNA DAY 0 / HBV VIRION DNA DAY 9 / HBV VIRION DNA DAY 6: single well, dihydrochloride
[4] = solubility in DMSO, MeOH, H2O; type: physicochemical
2.2.15 cells = assay: toxicity analysis, neutral red dye uptake in 2.2.15 cells; conditions: triplicate, ± standard deviation
[5] = 50 μM, zero = undetectable, cutoff 0.1 pg/ml

## 1-Methyl-4-(1-methyl-4-trimethylammoniumacetamidopyrrole-2-carboxamido)pyr role-2-carboxyamidopriopionamidine chloride hydrochloride [3(B)]
Vaccinia virus
  minimum inhibitory concentration: 300 µg/mL

## O=C(O)C1=CC(=C(c2ccc(O)c(C(=O)O)c2)c2ccc(O)c(C(=O)O)c2)C=CC1=O [Aurintricarboxylic acid, reference compound]
[1]
  IC50: 3.36 µM

## Cn1cc(NC(=O)c2cc(NC(=O)CNC(=N)N)cn2C)cc1C(=O)NCCC(=N)N [Compound 1, reference compound]
poly(dA-dT)
  Kapp: 9.4e+07 M⁻¹
Calf thymus DNA
  DNA Binding Constant: 1.9e+07 M⁻¹

## Cl.Cl.Cn1cc(NC(=O)c2nc(NC(=O)/C=C\C(=O)Nc3cn(C)c(C(=O)Nc4cn(C)c(C(=O)NCCC(=N)N)n4)n3)cn2C)nc1C(=O)NCCC(=N)N [Compound 39, Bis-Lexitropsin]
[2]
  Activity, MIC50: > 100.00 µg/mL
SC-1 cells
  Toxicity, TD50: > 100.00 ug/mL^-1

## Cl.Cl.Cn1cc(NC(=O)c2cc(NC(=O)[C@@H]3CC[C@H]3C(=O)Nc3cc(C(=O)Nc4cc(C(=O)NCCC(=N)N)n(C)c4)n(C)c3)cn2C)cc1C(=O)NCCC(=N)N (relative stereo) [Compound 25b, N,N'-di[1-methyl-2-[1-methyl-2-carboxamido(3-propionamidine)-4-pyrrole]-4-pyrrolyl] trans 1,2-cyclobutaneamide dihydrochloride]
[3]; dose 2.92 × 10^-4 Molar
  […] % of Control: 0.54 % of Control
[3]; dose 2.93 × 10^-5 Molar
  […] % of Control: 174.62 % of Control
[3]; dose 2.93 × 10^-6 Molar
  […] % of Control: 116.36 % of Control
[3]; dose 2.94 × 10^-7 Molar
  […] % of Control: 90.95 % of Control
[3]; dose 9.25 × 10^-4 Molar
  […] % of Control: 8.29 % of Control
[3]; dose 9.27 × 10^-5 Molar
  […] % of Control: 101.95 % of Control
[3]; dose 9.29 × 10^-7 Molar
  […] % of Control: 102.41 % of Control
[3]; dose 9.38 × 10^-6 Molar
  […] % of Control: 145.18 % of Control
HIV-1
  EC50: 0.42 µM
HIV-1; dose 2.92 × 10^-4 Molar
  INFECTED RESPONSE % of Control: 0.04 % of Control
HIV-1; dose 2.93 × 10^-5 Molar
  INFECTED RESPONSE % of Control: 110.05 % of Control
HIV-1; dose 2.93 × 10^-6 Molar
  INFECTED RESPONSE % of Control: 77.00 % of Control
HIV-1; dose 2.94 × 10^-7 Molar
  INFECTED RESPONSE % of Control: 42.92 % of Control
HIV-1; dose 9.25 × 10^-4 Molar
  INFECTED RESPONSE % of Control: 9.72 % of Control
HIV-1; dose 9.27 × 10^-5 Molar
  INFECTED RESPONSE % of Control: 90.52 % of Control
HIV-1; dose 9.29 × 10^-7 Molar
  INFECTED RESPONSE % of Control: 59.07 % of Control
HIV-1; dose 9.38 × 10^-6 Molar
  INFECTED RESPONSE % of Control: 80.26 % of Control
poly(dA-dT)
  Kapp: 5.6e+07 M⁻¹
[1]
  ID50 (average ± SD): 21.8 ± 9.2 µg/mL

## Cl.Cl.Cn1cc(NC(=O)c2cc(NC(=O)Nc3cc(C(=O)Nc4cc(C(=O)NCCC(=N)N)n(C)c4)n(C)c3)cn2C)cc1C(=O)NCCC(=N)N [Compound 3, N,N'-Di(1-methyl-2-[1-methyl-2-carboxamido(3-propionamidine)-4-pyrrole]-4-pyrrolyl)urea dihydrochloride]
HBV; 10 μM
  INT[…] DNA MONO.: 2.8 pg/μg CELL DNA and 2.2 pg/μg CELL DNA and 2.6 pg/μg CELL DNA and 2.5 pg/μg CELL DNA
  HBV VIRION DNA DAY 0: 57 pg/ml CULTURE MEDIUM and 64 pg/ml CULTURE MEDIUM and 74 pg/ml CULTURE MEDIUM and 60 pg/ml CULTURE MEDIUM
  HBV VIRION DNA DAY 9: 69 pg/ml CULTURE MEDIUM and 74 pg/ml CULTURE MEDIUM and 94 pg/ml CULTURE MEDIUM and 92 pg/ml CULTURE MEDIUM
HBV; 50 μM
  INT[…] DNA MONO.: 2.9 pg/μg CELL DNA and 2.2 pg/μg CELL DNA and 2.4 pg/μg CELL DNA
  HBV VIRION DNA DAY 0: 58 pg/ml CULTURE MEDIUM and 68 pg/ml CULTURE MEDIUM and 81 pg/ml CULTURE MEDIUM
  HBV VIRION DNA DAY 6: 67 pg/ml CULTURE MEDIUM and 44 pg/ml CULTURE MEDIUM and 78 pg/ml CULTURE MEDIUM and 76 pg/ml CULTURE MEDIUM
HBV; [5]
  HBV VIRION DNA DAY 9: 16 pg/ml CULTURE MEDIUM and 13 pg/ml CULTURE MEDIUM and 19 pg/ml CULTURE MEDIUM and 10 pg/ml CULTURE MEDIUM
HBV; tested at 50 and 10 μM, compared with 2',3'-ddC
  effect on HBV replication (in words): weak inhibitor
[4]; DMSO
  Solubility in DMSO: good
[4]; H2O
  Solubility in H2O: good
HIV-1
  EC50: 11.9 µM
  Anti-HIV-1 Activity (National Cancer Institute Designation): Moderate
2.2.15 cells; 10 μg/ml
  NEUTRAL RED DYE UPTAKE: 99 ± 1 % OF CONTROL
2.2.15 cells; 30 μg/ml
  NEUTRAL RED DYE UPTAKE: 99 ± 1 % OF CONTROL
2.2.15 cells; 100 μg/ml
  NEUTRAL RED DYE UPTAKE: 99 ± 2 % OF CONTROL
2.2.15 cells; 300 μg/ml
  NEUTRAL RED DYE UPTAKE: 82 ± 2 % OF CONTROL
Calf thymus DNA
  DNA Binding Constant: 5.6e+07 M⁻¹

## Cl.Cl.Cn1cc(NC(=O)c2cc(NC(=O)CC(=O)Nc3cc(C(=O)Nc4cc(C(=O)NCCC(N)=O)n(C)c4)n(C)c3)cn2C)cc1C(=O)NCCC(N)=O [Compound 4, N,N'-Di(1-methyl-2-[1-methyl-2-carboxamido(3-proprionamide)-4-pyrrole]-4-pyrrolyl)malonamide dihydrochloride]
HBV; 10 μM
  INT[…] DNA MONO.: 2.3 pg/μg CELL DNA and 2.8 pg/μg CELL DNA and 2.1 pg/μg CELL DNA
  HBV VIRION DNA DAY 0: 77 pg/ml CULTURE MEDIUM and 61 pg/ml CULTURE MEDIUM and 64 pg/ml CULTURE MEDIUM
  HBV VIRION DNA DAY 6: 52 pg/ml CULTURE MEDIUM and 55 pg/ml CULTURE MEDIUM and 96 pg/ml CULTURE MEDIUM and 59 pg/ml CULTURE MEDIUM
  HBV VIRION DNA DAY 9: 73 pg/ml CULTURE MEDIUM and 81 pg/ml CULTURE MEDIUM and 62 pg/ml CULTURE MEDIUM and 50 pg/ml CULTURE MEDIUM
HBV; 50 μM
  INT[…] DNA MONO.: 2.5 pg/μg CELL DNA and 2.8 pg/μg CELL DNA and 2.1 pg/μg CELL DNA and 2.4 pg/μg CELL DNA
  HBV VIRION DNA DAY 0: 63 pg/ml CULTURE MEDIUM and 66 pg/ml CULTURE MEDIUM and 78 pg/ml CULTURE MEDIUM and 74 pg/ml CULTURE MEDIUM
  HBV VIRION DNA DAY 6: 86 pg/ml CULTURE MEDIUM and 70 pg/ml CULTURE MEDIUM and 64 pg/ml CULTURE MEDIUM and 88 pg/ml CULTURE MEDIUM
HBV; [5]
  HBV VIRION DNA DAY 9: 97 pg/ml CULTURE MEDIUM and 65 pg/ml CULTURE MEDIUM and 61 pg/ml CULTURE MEDIUM and 85 pg/ml CULTURE MEDIUM
2.2.15 cells; 10 μg/ml
  NEUTRAL RED DYE UPTAKE: 99 ± 1 % OF CONTROL
2.2.15 cells; 100 μg/ml
  NEUTRAL RED DYE UPTAKE: 100 ± 1 % OF CONTROL
2.2.15 cells; 300 μg/ml
  NEUTRAL RED DYE UPTAKE: 99 ± 1 % OF CONTROL
Calf thymus DNA
  DNA Binding Constant: 3.6e+07 M⁻¹

## 1-Methyl-4-(1-methyl-4-trimethylammoniumacetamidopyrrole-2-carboxamido)pyr role-2-carboxyamidopriopionamidine chloride hydrochloride [Example 3(A)]
Vaccinia virus
  minimum inhibitory concentration: 20 µg/mL

## Cl.Cl.Cn1cc(NC(=O)c2cc(NC(=O)[C@@H]3C[C@H]3C(=O)Nc3cc(C(=O)Nc4cc(C(=O)NCCC(=N)N)n(C)c4)n(C)c3)cn2C)cc1C(=O)NCCC(=N)N [Compound 23b, N,N'-Di(1-methyl-2-[1-methyl-2-carboxamide-(3-proprionamidine)-4-pyrrole]-4-pyrrolyl)transcylcopropyldicarboxamide dihydrochloride]
HIV-1
  EC50: 3.44 µM
  Anti-HIV-1 Activity (National Cancer Institute Designation): Moderate
poly(dA-dT)
  Kapp: 5.3e+07 M⁻¹
[1]
  ID50 (average ± SD): 7.0 ± 3.6 µg/mL

## Cc1cn([C@H]2C[C@H](N=[N+]=[N-])[C@@H](CO)O2)c(=O)[nH]c1=O [AZT]
[2]
  Activity, MIC50: 0.0014 µg/mL
SC-1 cells
  Toxicity, TD50: > 100.00 ug/mL^-1
